ChEMBL document CHEMBL3352551, “Synthesis and biological evaluation of novel allosteric enhancers of the A1 adenosine receptor based on 2-amino-3-(4'-chlorobenzoyl)-4-substituted-5-arylethynyl thiophene” (J Med Chem, 2014)
Active and inactive are the calls of the source. The calls are words filed in the database; no cut-off is given here.

Columns and labels:
[1] = target: Adenosine receptor A2a (Homo sapiens) (UniProt P29274); test: Displacement of [3H]ZM241385 from human adenosine A2A receptor expressed in CHO cell membranes at 10 uM
Adenosine receptor A2a (Homo sapiens), sequence (P29274 whole entry): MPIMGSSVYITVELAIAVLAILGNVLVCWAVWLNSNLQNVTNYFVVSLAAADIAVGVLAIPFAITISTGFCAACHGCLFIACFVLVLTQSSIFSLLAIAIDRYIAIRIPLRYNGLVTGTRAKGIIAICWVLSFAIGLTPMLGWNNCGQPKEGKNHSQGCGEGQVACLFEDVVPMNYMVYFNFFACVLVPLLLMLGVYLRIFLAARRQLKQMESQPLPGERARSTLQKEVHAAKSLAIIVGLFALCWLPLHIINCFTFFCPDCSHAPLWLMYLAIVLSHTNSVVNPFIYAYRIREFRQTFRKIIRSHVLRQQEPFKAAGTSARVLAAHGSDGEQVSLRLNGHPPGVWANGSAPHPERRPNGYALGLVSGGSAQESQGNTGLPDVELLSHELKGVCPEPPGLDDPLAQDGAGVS

[2] = target: T1, Adenosine receptor A1 (Homo sapiens) (UniProt P30542); test: Allosteric enhancer activity at human adenosine A1 receptor expressed in CHO cell membranes assessed as shift in CCPA binding Ki level at 10 uM by [3H]DPCPX competition binding assay
T1 sequence (whole entry): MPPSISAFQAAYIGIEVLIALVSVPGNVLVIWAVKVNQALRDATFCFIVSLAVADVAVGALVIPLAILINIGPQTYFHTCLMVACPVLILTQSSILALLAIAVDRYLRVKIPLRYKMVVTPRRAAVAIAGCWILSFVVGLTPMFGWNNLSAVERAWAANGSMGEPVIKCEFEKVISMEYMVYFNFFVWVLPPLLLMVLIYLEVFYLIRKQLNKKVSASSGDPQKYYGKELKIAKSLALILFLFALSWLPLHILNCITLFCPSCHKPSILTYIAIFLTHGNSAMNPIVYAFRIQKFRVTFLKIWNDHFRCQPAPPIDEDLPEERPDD

[3] = target: T1, Adenosine receptor A1 (Homo sapiens); test: Displacement of [3H]DPCPX from human adenosine A1 receptor expressed in CHO cell membranes at 10 uM
[4] = target: T1, Adenosine receptor A1 (Homo sapiens); test: Allosteric enhancer activity at human adenosine A1 receptor expressed in CHO cell membranes assessed as [3H]NECA dissociation rate at 1 uM (reference value: 0.0159 +/- 0.0004 /min); type: cell-based
[5] = target: T1, Adenosine receptor A1 (Homo sapiens); test: Allosteric enhancer activity at human adenosine A1 receptor expressed in CHO cell membranes assessed as [3H]NECA association rate at 1 uM (reference value: 0.0183 +/- 0.0008 /nM/min); type: cell-based
Adenosine receptor A1 = target: T2, Adenosine receptor A1 (Rattus norvegicus, UniProt P25099); test: Displacement of [3H]DPCPX from adenosine A1 receptor in rat membranes; type: cell membranes
T2 sequence (P25099 whole entry): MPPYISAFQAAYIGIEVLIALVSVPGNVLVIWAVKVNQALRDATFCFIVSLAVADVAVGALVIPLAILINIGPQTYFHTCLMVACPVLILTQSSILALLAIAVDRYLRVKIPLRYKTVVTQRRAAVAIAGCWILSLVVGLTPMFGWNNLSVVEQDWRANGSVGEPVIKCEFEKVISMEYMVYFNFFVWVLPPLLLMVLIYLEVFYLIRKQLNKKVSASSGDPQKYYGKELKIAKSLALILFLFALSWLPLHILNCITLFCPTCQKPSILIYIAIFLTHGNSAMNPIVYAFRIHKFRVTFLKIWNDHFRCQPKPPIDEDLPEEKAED

[6] = target: T1, Adenosine receptor A1 (Homo sapiens); test: Allosteric enhancer activity at human adenosine A1 receptor expressed in CHO cell membranes assessed as shift in [3H]CCPA Kd level at 10 uM by saturation binding assay
[7] = target: T1, Adenosine receptor A1 (Homo sapiens); test: Allosteric enhancer activity at human adenosine A1 receptor expressed in CHO cell membranes assessed as shift in [3H}NECA binding affinity level at 1 uM
[8] = target: T1, Adenosine receptor A1 (Homo sapiens); test: Allosteric enhancer activity at human adenosine A1 receptor expressed in CHO cell membranes assessed as shift in [3H]CCPA Bmax level at 10 uM by saturation binding assay
[9] = target: T1, Adenosine receptor A1 (Homo sapiens); test: Allosteric enhancer activity at human adenosine A1 receptor expressed in CHO cells assessed as inhibition of forskolin-induced cAMP production at 10 uM; type: functional, cell-based
[10] = target: T3, Adenosine receptor A3 (Homo sapiens) (UniProt P0DMS8); test: Displacement of [3H]MRE-3008-F20 from human adenosine 3 receptor expressed in CHO cell membranes at 10 uM
T3 sequence (whole entry): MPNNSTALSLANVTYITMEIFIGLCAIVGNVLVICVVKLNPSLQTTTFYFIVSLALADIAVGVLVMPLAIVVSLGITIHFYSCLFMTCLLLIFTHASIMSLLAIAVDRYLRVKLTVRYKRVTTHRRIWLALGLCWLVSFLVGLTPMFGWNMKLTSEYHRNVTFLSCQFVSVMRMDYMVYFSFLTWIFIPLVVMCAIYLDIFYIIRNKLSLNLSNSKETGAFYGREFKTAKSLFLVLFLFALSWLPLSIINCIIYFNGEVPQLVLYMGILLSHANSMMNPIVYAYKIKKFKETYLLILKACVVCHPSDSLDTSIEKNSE

[11] = target: T1, Adenosine receptor A1 (Homo sapiens); test: Allosteric enhancer activity at human adenosine A1 receptor expressed in CHO cells assessed as inhibition of forskolin-induced cAMP production at 100 nM in presence of 1 pM CCPA; type: functional, cell-based
[12] = target: T1, Adenosine receptor A1 (Homo sapiens); test: Allosteric enhancer activity at human adenosine A1 receptor expressed in CHO cell membranes assessed as slowing of [3H]NECA dissociation rate level at 1 uM; type: cell-based

Row | SMILES | inhibition [1] | fold change (FC) [2] | inhibition [3] | K [4] [min⁻¹] | K [5] [M⁻¹ s⁻¹] | Ki (Adenosine receptor A1) [µM] | Activity [6] | fold change (FC) [7] | fold change (FC) [8] | inhibition [9] [%] | inhibition [10] [%] | inhibition [11] [%] | fold change (FC) [12]
1 | Cc1sc(N)c(C(=O)c2cccc(C(F)(F)F)c2)c1C | inactive | 1.3 | inactive | 0.0143 | 318000 | 11 | inactive | 1.2 | 1.3 | – | – | – | –
2 | CC(C)(C)Cc1c(C#Cc2ccccc2)sc(N)c1C(=O)c1ccc(Cl)cc1 | < 15% | 9.9 | < 15% | 0.0076 | 273000 | – | inactive | 1.9 | 9.5 | 75 | < 15 | 77 | 2.1
